Structures can show the parent of a compound that is named as a salt. Where two headings read alike, the source gives them in different places.
Assays:
Assay type in all cases: biochemical
DAT = DAT (Rattus norvegicus, UniProt P23977); assay: DA release assay (synaptosomes, [3H]MPP+); design: the supernatants were retained on ice (synaptosomal preparation); from tissue; host or cells: rat caudate synaptosomes
Description: (§1) Rat caudate (for DA release) or whole brain minus cerebellum and caudate (for NE and 5-HT release), was homogenized in ice-cold 10% sucrose containing 1 μM reserpine. Nomifensine (100 nM) and GBR12935 (100 nM) were added to the sucrose solution for [^3H]5-HT release experiments to block any potential [^3H]5-HT reuptake into NE and DA nerve terminals. For the DA release assay, 100 nM desipramine and 100 nM citalopram were added to block [^3H]MPP^+ uptake into NE and 5-HT nerves. For the NE release assay, 50 nM GBR12935 and 100 nM citalopram were added to block [^3H]MPP^+ uptake into DA and 5-HT nerves. After 12 strokes with a Potter-Elvehjem homogenizer, homogenates were centrifuged at 1000×g for 10 min at 0-4° C. and the supernatants were retained on ice (synaptosomal preparation).
(§2) After incubation to steady state, 850 μl of synaptosomes preloaded with [^3H]ligand were added to 12×75 mm polystyrene test tubes that contained 150 μl test drug in uptake buffer plus 1 mg/ml BSA. After 5 min (^3H]5-HT) or 30 min (NE and DA assays) the release reaction was terminated by dilution with 4 ml wash buffer (10 mM Tris-HCl pH 7.4 containing 0.9% NaCl at 25° C.) followed by rapid vacuum filtration over Whatman GF/B filters using a Brandel Harvester. The filters were rinsed twice with 4 ml wash buffer using the Brandel Harvester, and the retained tritium was counted by a Taurus liquid scintillation counter at 40% efficiency after an overnight extraction in 3 ml Cytoscint (ICN).
(§3) In substrate reversal experiments, statistical significance was determined using the Student's t-test.

NET = target: T1, NET (Rattus norvegicus, UniProt Q63380); assay: NE release assay (synaptosomes, [3H]MPP+); settings: for NE Rel (%): % EC50 of release
T1 construct: the supernatants were retained on ice (synaptosomal preparation); from tissue; host or cells: rat whole brain minus cerebellum and caudate, synaptosomes
Description: as §1, §2, §3

SERT = SERT (Rattus norvegicus, UniProt P31652); assay: 5-HT release assay (synaptosomes, [3H]5-HT); design: the supernatants were retained on ice (synaptosomal preparation); from tissue; host or cells: rat whole brain minus cerebellum and caudate, synaptosomes; settings: for 5HT Rel (%): Table 4, % EC50 of release
Description: as §1, §2, §3

Sequence of SERT (P31652 whole entry): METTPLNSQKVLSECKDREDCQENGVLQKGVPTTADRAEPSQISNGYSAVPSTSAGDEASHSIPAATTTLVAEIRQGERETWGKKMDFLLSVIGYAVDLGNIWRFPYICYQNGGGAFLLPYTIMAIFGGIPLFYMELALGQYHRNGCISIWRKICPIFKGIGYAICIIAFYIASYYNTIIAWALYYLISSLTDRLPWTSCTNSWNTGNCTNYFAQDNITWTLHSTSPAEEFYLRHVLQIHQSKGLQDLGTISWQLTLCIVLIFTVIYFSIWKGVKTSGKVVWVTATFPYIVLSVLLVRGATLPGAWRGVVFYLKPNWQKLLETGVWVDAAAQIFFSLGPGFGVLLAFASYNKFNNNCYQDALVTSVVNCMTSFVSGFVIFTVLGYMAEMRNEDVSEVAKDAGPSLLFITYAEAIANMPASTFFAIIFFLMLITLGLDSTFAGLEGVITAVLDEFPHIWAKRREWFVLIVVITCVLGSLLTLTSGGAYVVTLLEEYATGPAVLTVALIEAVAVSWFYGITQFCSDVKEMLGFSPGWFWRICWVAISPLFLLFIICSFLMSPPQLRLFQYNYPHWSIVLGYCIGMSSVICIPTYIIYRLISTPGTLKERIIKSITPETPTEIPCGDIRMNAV
T1 sequence (Q63380 1-617): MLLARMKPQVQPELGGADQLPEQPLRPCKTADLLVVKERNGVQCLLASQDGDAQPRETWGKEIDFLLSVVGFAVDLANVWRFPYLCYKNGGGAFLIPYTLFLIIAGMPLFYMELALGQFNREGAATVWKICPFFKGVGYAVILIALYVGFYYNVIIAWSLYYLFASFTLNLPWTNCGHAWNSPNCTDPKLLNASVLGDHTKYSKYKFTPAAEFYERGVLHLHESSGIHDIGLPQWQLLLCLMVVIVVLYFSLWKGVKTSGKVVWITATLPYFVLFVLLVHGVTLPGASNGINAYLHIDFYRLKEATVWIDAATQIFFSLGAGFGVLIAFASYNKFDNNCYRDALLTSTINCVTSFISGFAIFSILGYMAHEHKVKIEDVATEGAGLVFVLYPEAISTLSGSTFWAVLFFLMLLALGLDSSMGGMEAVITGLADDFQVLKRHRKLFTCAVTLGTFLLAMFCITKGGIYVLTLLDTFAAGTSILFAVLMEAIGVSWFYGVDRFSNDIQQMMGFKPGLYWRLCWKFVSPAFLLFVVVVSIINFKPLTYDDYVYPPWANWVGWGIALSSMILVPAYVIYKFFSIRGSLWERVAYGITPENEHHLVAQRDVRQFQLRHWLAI
Sequence of DAT (P23977 whole entry): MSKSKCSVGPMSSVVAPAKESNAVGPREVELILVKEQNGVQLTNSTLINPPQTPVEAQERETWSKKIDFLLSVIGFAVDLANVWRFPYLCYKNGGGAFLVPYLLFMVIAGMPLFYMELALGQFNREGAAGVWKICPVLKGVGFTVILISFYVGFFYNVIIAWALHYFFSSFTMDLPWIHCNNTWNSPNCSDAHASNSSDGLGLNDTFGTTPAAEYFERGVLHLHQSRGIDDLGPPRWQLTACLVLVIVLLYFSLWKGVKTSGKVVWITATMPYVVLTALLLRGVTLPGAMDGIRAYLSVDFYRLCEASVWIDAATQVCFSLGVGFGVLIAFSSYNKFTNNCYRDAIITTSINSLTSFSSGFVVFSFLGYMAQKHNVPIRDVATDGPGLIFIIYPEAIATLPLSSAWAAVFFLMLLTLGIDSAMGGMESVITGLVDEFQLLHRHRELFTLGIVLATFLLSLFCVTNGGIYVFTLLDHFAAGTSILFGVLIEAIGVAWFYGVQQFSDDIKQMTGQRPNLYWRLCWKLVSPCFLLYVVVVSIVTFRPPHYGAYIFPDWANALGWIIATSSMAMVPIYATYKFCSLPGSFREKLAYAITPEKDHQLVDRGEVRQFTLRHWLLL

Structure (SMILES) | DA Rel (%) (DAT; Table 4, % EC50 of release) | NE Rel (%) (NET; Table 4) | 5HT Rel (%) (SERT) | DA Rel (%) (DAT; Table 5) | other results
CC1NCCOC1c1ccccc1 (single isomer, unassigned; (-)) [(−)-isomer, reference compound] | – | – | – | – | DA releaser activity (in words) (DAT): active as a releaser, but is not as potent
C[C@H]1NCCOC1c1cccc(F)c1 (stereo in doubt) [PAL593, 2-(3-fluoro-phenyl)-3-methyl-morpholine] | – | – | – | – | EC50 (NET; NE Rel (EC50), Table 4): 30 nM; EC50 (DAT): 43 nM; EC50 (SERT): 2560 nM
C[C@H]1CO[C@@H](c2ccccc2)CN1 [PAL 730, (2S,5S)-5-Methyl-2-phenyl-morpholine] | – | – | – | – | EC50 (NET): 79 nM; EC50 (DAT): 212 nM; EC50 (SERT): 107 nM
C[C@H]1CO[C@@H](c2cccc(Cl)c2)CN1 [PAL 738, (2S,5S)-2-(3-Chloro-phenyl)-5-methyl-morpholine] | – | – | – | – | EC50 (NET): 65 nM; EC50 (DAT): 58 nM; EC50 (SERT): 23 nM
Cc1ccc(C2OCCNC2C)cc1 (centres unmarked) [PAL 747, 3-Methyl-2-(4′-Tolyl)morpholine fumarate] | 91% | – | – | – | –
CC1NCCOC1c1ccc(F)cc1.CC1NCCOC1c1ccc(F)cc1.O=C(O)/C=C/C(=O)O (centres unmarked) [PAL 748, 3-Methyl-[(4′-Fluoro)-2-Phenyl]morpholine (0.5 fumarate)] | 98% | 93% | 94% | – | –
CC1NCCOC1c1ccc(Cl)cc1.CC1NCCOC1c1ccc(Cl)cc1.O=C(O)/C=C/C(=O)O (centres unmarked) [PAL 749, 3-Methyl-[(4′-Chloro)-2-Phenyl]morpholine (0.5 fumarate)] | 88% | 93% | 76% | – | –
COc1ccc(C2OCCNC2C)cc1.Cl (centres unmarked) [PAL 751, 3-Methyl-[(4′-Methoxy)-2-Phenyl]morpholine hydrochloride] | 50% | 84% | 64% | – | –
CC1NCCOC1c1ccc(C#N)cc1.CC1NCCOC1c1ccc(C#N)cc1.O=C(O)/C=C/C(=O)O (centres unmarked) [PAL 772, 3-Methyl-[(4′-Cyano)-2-Phenyl]morpholine (0.5 fumarate)] | 0% | 100% | 53% | – | –
Cc1cccc(C2OCCNC2C)c1.Cc1cccc(C2OCCNC2C)c1.O=C(O)/C=C/C(=O)O (centres unmarked) [PAL 773, 3-Methyl-2-(3′-Tolyl)morpholine (0.5 fumarate)] | 98% | 80% | 82% | – | –
CC1NCCOC1c1cccc(O)c1.Cl (centres unmarked) [PAL 780, 3-Methyl-[(3′-Hydroxy)-2-Phenyl]morpholine hydrochloride] | 97% | 100% | 70% | – | –
CC1NCCOC1c1cccc(C#N)c1.Cl (centres unmarked) [PAL 786, 3-Methyl-[(3′-Cyano)-2-Phenyl]morpholine hydrochloride] | 99% | 100% | 99% | – | –
CC1NCCOC1c1ccc(F)c(Cl)c1.Cl (centres unmarked) [PAL 821, 3-Methyl-[(3′-Chloro-4′-Fluoro)-2-Phenyl]morpholine hydrochloride] | 94% | 80% | 71% | – | –
COc1cccc([C@H]2CN[C@@H](C)CO2)c1 [PAL 880, (2S,5S)-2-(3-Methoxy-phenyl)-5-methyl-morpholine] | – | – | – | 56% | –
Cc1cccc([C@H]2CN[C@@H](C)CO2)c1 [PAL 886, (2S,5S)-5-Methyl-2-m-tolyl-morpholine] | – | – | – | 86% | –
C[C@H]1CO[C@@H](c2cccc(F)c2)CN1 [PAL 890, (2S,5S)-2-(3-Fluoro-phenyl)-5-methyl-morpholine] | – | – | – | 96% | –
C[C@H]1CO[C@@H](c2cccc(C(F)(F)F)c2)CN1 [PAL 895, (2S,5S)-5-Methyl-2-(3-trifluoromethyl-phenyl)-morpholine] | – | – | – | 45% | –
C[C@H]1CO[C@@H](c2ccc(F)cc2)CN1 [PAL 903, (2S,5S)-2-(4-Fluoro-phenyl)-5-methyl-morpholine] | – | – | – | 65% | –
C[C@H]1CO[C@@H](c2ccc(C(F)(F)F)cc2)CN1 [PAL 910, (2S,5S)-5-Methyl-2-(4-trifluoromethyl-phenyl)-morpholine] | – | – | – | 15% | –
